Results published in ChEMBL document CHEMBL4507282, “Data for DCP probe BI-1950” (2021).
pIC50: −log10 of the molar value.

Legend:
[1] = target: Acetylcholine receptor subunit alpha (Homo sapiens) (UniProt P02708); experiment: NACH/H Eurofins-Panlabs selectivity data (BI); settings: Compound concentration 10.0 uM
[2] = target: Tyrosine-protein kinase Srms (Homo sapiens) (UniProt Q9H3Y6); settings: Compound concentration 1000.0 nM
[3] = target: Serine/threonine-protein kinase PAK 2 (Homo sapiens) (UniProt Q13177); settings: Compound concentration 1000.0 nM
[4] = target: Beta-3 adrenergic receptor (Homo sapiens) (UniProt P13945); settings: Compound concentration 10.0 uM
[5] = target: Serine/threonine-protein kinase pim-3 (Homo sapiens) (UniProt Q86V86); settings: Compound concentration 1000.0 nM
[6] = target: MAP kinase-interacting serine/threonine-protein kinase 2 (Homo sapiens) (UniProt Q9HBH9); settings: Compound concentration 1000.0 nM
[7] = target: Opioid receptor (Rattus norvegicus) (UniProt P33533+P34975+P33535); experiment: OPIAT/NS Eurofins-Panlabs selectivity data (BI); format: protein assay; settings: Compound concentration 10.0 uM
[8] = target: Type-1 angiotensin II receptor (Oryctolagus cuniculus) (UniProt P34976); experiment: AT1 Eurofins-Panlabs selectivity data (BI); settings: Homo sapiens; Compound concentration 10.0 uM
[9] = target: Calcium/calmodulin-dependent protein kinase type IV (Homo sapiens) (UniProt Q16566); settings: Compound concentration 1000.0 nM
[10] = target: Phosphatidylinositol 4,5-bisphosphate 3-kinase catalytic subunit beta isoform (Homo sapiens) (UniProt P42338); settings: Compound concentration 1000.0 nM
[11] = target: Amine oxidase [flavin-containing] A (MAO-A) (Homo sapiens, UniProt P21397); experiment: MAOA Eurofins-Panlabs selectivity data (BI); set-up: mode of action inhibitor; settings: compound concentration 10 uM, read-out: % Ctrl
[12] = target: Beta-2 adrenergic receptor (Homo sapiens) (UniProt P07550); settings: Compound concentration 10.0 uM
[13] = target: Mitogen-activated protein kinase kinase kinase 6 (Homo sapiens) (UniProt O95382); settings: Compound concentration 1000.0 nM
Rattus norvegicus = organism: Rattus norvegicus; settings: Compound concentration 10.0 uM
[14] = target: Sodium-dependent dopamine transporter (Homo sapiens) (UniProt Q01959); experiment: DATRANS/H Eurofins-Panlabs selectivity data (BI); settings: Compound concentration 10.0 uM
[15] = target: Voltage-dependent N-type calcium channel subunit alpha-1B (Rattus norvegicus) (UniProt Q02294); experiment: CA+/N/RA Eurofins-Panlabs selectivity data (BI); settings: Compound concentration 10.0 uM
[16] = target: Mitogen-activated protein kinase 15 (Homo sapiens) (UniProt Q8TD08); settings: Compound concentration 1000.0 nM
[17] = target: Cyclin-dependent kinase 11B (Homo sapiens) (UniProt P21127); settings: Compound concentration 1000.0 nM
[18] = target: D(2) dopamine receptor (Homo sapiens) (UniProt P14416); settings: Compound concentration 10.0 uM
[19] = test system: Tyrosine-protein kinase ABL1 (Homo sapiens), P00519 [Y253F]; settings: Compound concentration 1000.0 nM
[20] = target: Small conductance calcium-activated potassium channel protein 1 (Rattus norvegicus) (UniProt P70606); experiment: K+/SKCA Eurofins-Panlabs selectivity data (BI); settings: Compound concentration 10.0 uM
[21] = target: Sodium-dependent serotonin transporter (Homo sapiens) (UniProt P31645); experiment: 5HTTRANS/HU Eurofins-Panlabs selectivity data (BI); settings: Compound concentration 10.0 uM
[22] = target: 5-hydroxytryptamine receptor 4 (Cavia porcellus) (UniProt O70528); experiment: 5HT4/GPIG Eurofins-Panlabs selectivity data (BI); settings: Compound concentration 10.0 uM
[23] = target: D(3) dopamine receptor (Homo sapiens) (UniProt P35462); experiment: D3/HU Eurofins-Panlabs selectivity data (BI); settings: Compound concentration 10.0 uM
[24] = target: Voltage-dependent L-type calcium channel subunit alpha-1C (phenylalkylamine site) (Rattus norvegicus, UniProt P22002); experiment: CA+/PAASITE Eurofins-Panlabs selectivity data (BI); settings: read-out: % Ctrl
[25] = target: 5-hydroxytryptamine receptor 1A (Homo sapiens) (UniProt P08908); settings: Compound concentration 10.0 uM
[26] = test system: Tyrosine-protein kinase ABL1 (Homo sapiens), P00519 [T315I]; settings: Compound concentration 1000.0 nM
[27] = target: Sigma non-opioid intracellular receptor 1 (Homo sapiens) (UniProt Q99720); settings: Compound concentration 10.0 uM
[28] = target: Ephrin type-B receptor 6 (Homo sapiens) (UniProt O15197); settings: Compound concentration 1000.0 nM
[29] = test system: Tyrosine-protein kinase ABL1 (Homo sapiens), P00519 [F317I]; settings: Compound concentration 1000.0 nM
[30] = target: Wee1-like protein kinase 2 (Homo sapiens) (UniProt P0C1S8); settings: Compound concentration 1000.0 nM
[31] = target: Tyrosine-protein kinase FRK (Homo sapiens) (UniProt P42685); settings: Compound concentration 1000.0 nM
[32] = target: Serotonin 2 (5-HT2) receptor (Rattus norvegicus) (UniProt P30994+P08909+P14842); experiment: 5HT2/R Eurofins-Panlabs selectivity data (BI); format: protein assay; settings: Compound concentration 10.0 uM
[33] = target: Serine/threonine-protein kinase PknB (Mycobacterium tuberculosis) (UniProt P9WI81); settings: Compound concentration 1000.0 nM
[34] = target: Serine/threonine-protein kinase Chk1 (Homo sapiens) (UniProt O14757); settings: Compound concentration 1000.0 nM
[35] = target: Muscarinic acetylcholine receptor M1 (Homo sapiens) (UniProt P11229); settings: Compound concentration 10.0 uM
[36] = target: Alpha-2A adrenergic receptor (Homo sapiens) (UniProt P08913); settings: Compound concentration 10.0 uM
[37] = target: Muscarinic acetylcholine receptor M2 (Homo sapiens) (UniProt P08172); settings: Compound concentration 10.0 uM
tissue or blood = format: tissue-based; settings: Homo sapiens

Sequence of Voltage-dependent L-type calcium channel subunit alpha-1C (phenylalkylamine site) (P22002 whole entry): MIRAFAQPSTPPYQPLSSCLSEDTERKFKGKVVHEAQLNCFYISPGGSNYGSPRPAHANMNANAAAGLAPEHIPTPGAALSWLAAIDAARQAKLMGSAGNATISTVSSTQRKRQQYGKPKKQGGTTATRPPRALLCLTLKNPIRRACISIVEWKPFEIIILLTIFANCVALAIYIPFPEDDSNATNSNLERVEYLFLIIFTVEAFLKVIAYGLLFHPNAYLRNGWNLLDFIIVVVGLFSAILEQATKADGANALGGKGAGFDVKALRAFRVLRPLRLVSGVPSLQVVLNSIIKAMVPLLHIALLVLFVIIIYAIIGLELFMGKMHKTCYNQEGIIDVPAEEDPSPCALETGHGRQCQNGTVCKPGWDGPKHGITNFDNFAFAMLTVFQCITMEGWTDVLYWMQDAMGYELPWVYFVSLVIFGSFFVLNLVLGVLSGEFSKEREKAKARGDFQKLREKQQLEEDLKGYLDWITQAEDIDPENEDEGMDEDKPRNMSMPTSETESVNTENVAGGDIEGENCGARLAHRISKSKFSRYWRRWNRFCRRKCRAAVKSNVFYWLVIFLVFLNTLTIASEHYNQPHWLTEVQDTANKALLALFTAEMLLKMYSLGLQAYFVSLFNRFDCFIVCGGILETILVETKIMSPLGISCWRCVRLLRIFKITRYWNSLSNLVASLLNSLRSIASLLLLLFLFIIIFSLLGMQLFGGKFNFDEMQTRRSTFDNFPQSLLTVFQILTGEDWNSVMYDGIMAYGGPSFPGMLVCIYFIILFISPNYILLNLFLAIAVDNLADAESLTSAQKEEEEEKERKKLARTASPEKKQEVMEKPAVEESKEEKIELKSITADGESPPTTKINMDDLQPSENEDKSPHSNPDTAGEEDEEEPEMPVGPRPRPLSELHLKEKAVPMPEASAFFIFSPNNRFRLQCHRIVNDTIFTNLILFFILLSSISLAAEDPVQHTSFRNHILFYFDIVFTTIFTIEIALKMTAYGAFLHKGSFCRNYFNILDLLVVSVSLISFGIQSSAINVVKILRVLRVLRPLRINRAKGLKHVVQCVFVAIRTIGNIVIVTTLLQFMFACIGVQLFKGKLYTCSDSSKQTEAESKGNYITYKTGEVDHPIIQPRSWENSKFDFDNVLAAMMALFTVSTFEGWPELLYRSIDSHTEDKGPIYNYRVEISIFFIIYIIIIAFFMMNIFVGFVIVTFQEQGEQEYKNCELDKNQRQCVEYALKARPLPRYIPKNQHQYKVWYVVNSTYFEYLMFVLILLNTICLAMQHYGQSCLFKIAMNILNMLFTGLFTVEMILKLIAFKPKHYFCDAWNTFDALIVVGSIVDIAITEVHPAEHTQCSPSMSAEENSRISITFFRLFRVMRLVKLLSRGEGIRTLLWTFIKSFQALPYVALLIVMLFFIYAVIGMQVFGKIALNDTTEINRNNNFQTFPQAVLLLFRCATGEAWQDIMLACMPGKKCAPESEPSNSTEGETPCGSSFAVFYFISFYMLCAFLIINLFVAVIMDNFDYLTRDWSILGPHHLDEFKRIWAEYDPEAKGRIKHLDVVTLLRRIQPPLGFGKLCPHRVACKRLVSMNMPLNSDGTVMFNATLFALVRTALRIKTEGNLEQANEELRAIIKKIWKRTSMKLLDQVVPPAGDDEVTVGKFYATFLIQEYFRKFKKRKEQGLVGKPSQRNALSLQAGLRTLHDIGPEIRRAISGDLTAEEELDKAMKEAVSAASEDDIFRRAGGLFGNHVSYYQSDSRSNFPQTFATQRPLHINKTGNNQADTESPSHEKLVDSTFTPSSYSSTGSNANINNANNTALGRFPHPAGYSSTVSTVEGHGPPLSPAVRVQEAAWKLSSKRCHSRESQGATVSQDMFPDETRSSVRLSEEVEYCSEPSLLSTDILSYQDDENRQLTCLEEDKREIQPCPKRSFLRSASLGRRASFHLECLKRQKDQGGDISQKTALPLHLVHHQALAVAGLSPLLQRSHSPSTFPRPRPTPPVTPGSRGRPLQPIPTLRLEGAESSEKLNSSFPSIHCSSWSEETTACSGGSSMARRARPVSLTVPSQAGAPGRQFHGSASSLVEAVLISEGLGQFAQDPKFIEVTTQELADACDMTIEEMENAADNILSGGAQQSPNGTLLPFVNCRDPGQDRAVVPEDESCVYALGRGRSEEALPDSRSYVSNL
Sequence of Cyclin-dependent kinase 11B (Homo sapiens) (P21127 whole entry): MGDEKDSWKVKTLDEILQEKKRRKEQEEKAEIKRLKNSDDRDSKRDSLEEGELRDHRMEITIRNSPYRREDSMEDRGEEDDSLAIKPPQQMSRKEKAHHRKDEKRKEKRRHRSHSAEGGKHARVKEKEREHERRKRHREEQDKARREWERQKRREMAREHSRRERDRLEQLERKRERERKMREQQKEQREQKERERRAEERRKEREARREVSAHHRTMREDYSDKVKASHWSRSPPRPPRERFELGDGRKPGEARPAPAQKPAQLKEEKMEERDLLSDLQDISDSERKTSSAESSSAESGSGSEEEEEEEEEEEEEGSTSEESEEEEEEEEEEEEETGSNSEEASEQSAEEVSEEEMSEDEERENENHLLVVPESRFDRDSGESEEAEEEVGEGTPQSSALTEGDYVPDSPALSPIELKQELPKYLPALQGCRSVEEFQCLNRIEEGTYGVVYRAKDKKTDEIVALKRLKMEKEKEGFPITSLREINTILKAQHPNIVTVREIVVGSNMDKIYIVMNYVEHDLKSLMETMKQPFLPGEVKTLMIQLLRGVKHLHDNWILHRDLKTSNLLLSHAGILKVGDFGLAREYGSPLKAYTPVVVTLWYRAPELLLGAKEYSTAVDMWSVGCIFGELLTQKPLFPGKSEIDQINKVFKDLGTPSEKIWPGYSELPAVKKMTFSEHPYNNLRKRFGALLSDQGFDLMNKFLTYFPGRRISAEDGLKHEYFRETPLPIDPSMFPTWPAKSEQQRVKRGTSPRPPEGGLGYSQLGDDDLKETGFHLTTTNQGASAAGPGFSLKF
Sequence of Serine/threonine-protein kinase Chk1 (Homo sapiens) (O14757 whole entry): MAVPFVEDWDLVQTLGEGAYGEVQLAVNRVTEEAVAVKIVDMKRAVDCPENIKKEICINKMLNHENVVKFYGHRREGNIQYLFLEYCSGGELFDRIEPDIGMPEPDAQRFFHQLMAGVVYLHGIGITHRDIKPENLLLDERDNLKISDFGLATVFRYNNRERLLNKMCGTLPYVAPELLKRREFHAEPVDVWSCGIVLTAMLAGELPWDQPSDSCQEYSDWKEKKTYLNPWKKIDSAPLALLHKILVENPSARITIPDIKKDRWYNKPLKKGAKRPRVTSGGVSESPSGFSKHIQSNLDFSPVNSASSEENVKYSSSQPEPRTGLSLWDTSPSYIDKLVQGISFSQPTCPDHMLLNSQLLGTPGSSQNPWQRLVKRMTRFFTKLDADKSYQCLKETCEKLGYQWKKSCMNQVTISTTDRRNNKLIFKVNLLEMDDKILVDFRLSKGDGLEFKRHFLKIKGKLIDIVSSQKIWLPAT
Sequence of Beta-2 adrenergic receptor (Homo sapiens) (P07550 whole entry, looked up): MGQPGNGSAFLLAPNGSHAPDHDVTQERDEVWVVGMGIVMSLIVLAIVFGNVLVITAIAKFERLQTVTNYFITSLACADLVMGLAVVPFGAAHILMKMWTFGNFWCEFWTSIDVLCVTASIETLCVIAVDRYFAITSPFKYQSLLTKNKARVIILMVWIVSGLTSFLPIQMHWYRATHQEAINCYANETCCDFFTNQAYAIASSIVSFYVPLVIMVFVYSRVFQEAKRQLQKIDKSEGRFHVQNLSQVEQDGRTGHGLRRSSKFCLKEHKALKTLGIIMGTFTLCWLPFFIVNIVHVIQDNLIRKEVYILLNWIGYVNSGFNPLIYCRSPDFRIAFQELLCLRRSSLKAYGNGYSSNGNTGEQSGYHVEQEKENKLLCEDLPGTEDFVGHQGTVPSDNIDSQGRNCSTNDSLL
Sequence of Serine/threonine-protein kinase PAK 2 (Homo sapiens) (Q13177 whole entry): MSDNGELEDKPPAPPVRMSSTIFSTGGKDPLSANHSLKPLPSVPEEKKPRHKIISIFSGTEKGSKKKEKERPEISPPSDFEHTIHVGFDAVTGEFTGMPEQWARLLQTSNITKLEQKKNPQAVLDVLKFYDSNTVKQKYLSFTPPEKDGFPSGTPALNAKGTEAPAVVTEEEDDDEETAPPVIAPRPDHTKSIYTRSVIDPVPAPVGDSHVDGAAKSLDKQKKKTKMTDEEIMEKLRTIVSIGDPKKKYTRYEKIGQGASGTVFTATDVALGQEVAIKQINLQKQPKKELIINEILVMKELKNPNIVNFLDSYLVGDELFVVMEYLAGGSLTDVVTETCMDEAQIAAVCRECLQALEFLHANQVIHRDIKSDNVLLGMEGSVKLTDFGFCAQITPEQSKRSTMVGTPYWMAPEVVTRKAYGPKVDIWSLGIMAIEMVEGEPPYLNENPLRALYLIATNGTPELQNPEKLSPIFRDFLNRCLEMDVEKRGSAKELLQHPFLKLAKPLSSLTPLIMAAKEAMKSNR
Sequence of Tyrosine-protein kinase FRK (Homo sapiens) (P42685 whole entry): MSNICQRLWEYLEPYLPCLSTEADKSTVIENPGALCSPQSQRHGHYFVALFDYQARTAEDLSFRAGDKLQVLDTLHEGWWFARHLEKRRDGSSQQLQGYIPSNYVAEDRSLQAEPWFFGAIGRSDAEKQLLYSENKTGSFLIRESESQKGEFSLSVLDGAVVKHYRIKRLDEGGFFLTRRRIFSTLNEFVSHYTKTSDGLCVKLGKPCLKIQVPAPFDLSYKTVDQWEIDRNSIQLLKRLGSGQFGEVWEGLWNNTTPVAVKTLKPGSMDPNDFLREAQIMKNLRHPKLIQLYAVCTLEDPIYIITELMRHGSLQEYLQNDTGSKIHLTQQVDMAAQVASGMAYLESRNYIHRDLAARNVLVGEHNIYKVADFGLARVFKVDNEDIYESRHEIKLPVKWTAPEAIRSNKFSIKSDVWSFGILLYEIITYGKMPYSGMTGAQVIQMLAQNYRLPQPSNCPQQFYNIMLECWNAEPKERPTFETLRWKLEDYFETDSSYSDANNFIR

C[C@H](NC(=O)c1cnc2n1[C@](C)(Cc1ccc(C#N)cc1)C(=O)N2c1cc(Cl)c(F)c(Cl)c1)C(=O)NC1(c2ccccn2)CC1 [BI 1950]
107% (not active): activity at 10 µM [11]
110% (not active): activity at 0.1 µM ([24]; compound concentration 0.1 uM)
102% (not active): activity at 0.3 µM ([24]; compound concentration 0.3 uM)
109% (not active): activity at 0.03 µM ([24]; compound concentration 0.03 uM)
86% (not active): activity at 1 µM ([24]; compound concentration 1 uM)
76% (not active): activity at 3 µM ([24]; compound concentration 3 uM)
49.5%: activity at 10 µM ([24]; compound concentration 10 uM)
inactive: residual activity [1] 112% | residual activity [2] 100% | residual activity [3] 92% | inhibition [4] 12.4% | residual activity [5] 100% | residual activity [6] 100% | residual activity [7] 78% | residual activity [8] 90% | residual activity [9] 100% | residual activity [10] 99% | inhibition [12] -9.72% | residual activity [13] 100% | inhibition (Rattus norvegicus) 13.1% | residual activity [14] 67% | residual activity [15] 102% | residual activity [16] 100% | residual activity [17] 100% | inhibition [18] 7.62% | residual activity [19] 100% | residual activity [20] 108% | residual activity [21] 119% | residual activity [22] 83% | residual activity [23] 88% | inhibition [25] -9.74% | residual activity [26] 100% | inhibition [27] -6.44% | residual activity [28] 100% | residual activity [29] 100% | residual activity [30] 100% | residual activity [31] 68% | residual activity [32] 98% | residual activity [33] 100% | residual activity [34] 100%

C[C@@]1(Cc2ccc(C#N)cc2)C(=O)N(c2cc(Cl)cc(Cl)c2)c2ncc(C(=O)NC3(c4nc(C5CCC5)no4)CC3)n21 [BI 9446]
inactive: residual activity [2] 100% | residual activity [3] 64% | residual activity [5] 100% | residual activity [6] 100% | residual activity [9] 100% | residual activity [10] 97% | inhibition [35] -8.37% | inhibition [36] 12.1% | inhibition [12] -7.08% | residual activity [13] 82% | inhibition [37] -8.35% | residual activity [16] 100% | residual activity [17] 100% | inhibition [18] 16.4% | residual activity [19] 95% | residual activity [26] 100% | residual activity [28] 100% | residual activity [29] 94% | residual activity [30] 100% | residual activity [31] 81% | residual activity [33] 96% | residual activity [34] 90%
< 6.00: pIC50 (tissue or blood)
